Measured values from publication PMC6429159, “Evolution and Biological Evaluation of Matrinic Derivatives with Amantadine Fragments As New Anti-Influenza Virus Agents” (Molecules, 2019).
Counter-ions that a name gives are not always drawn.

Assays:
MDCK cells = experiment: Cytotoxicity assay; assay type: cell-based; settings: 50% cytotoxic concentration, 48 hr
Experimental: A three-fold dilution compound was added to cell monolayer, and the cells continued to be cultivated for 48 hr, and then the CPE was recorded. The TC50 value of each compound was calculated by the methods of Reed & Muench.

[1] = tested on: influenza virus A/hanfang/359/95 (H3N2); experiment: organism not typed; assay type: cell-based; settings: MDCK cells; for IC50: 50% virus-inhibitory concentration after 40 hr at 37 °C, – = no anti-H3N2 activity at the maximum non-toxic concentration; for anti-H3N2 activity (in words): CPE assay

Row | Structure (SMILES) | melting point | TC50 (MDCK cells) [µM] | IC50 [1] [µM] | anti-H3N2 activity (in words) [1]
1 | O=C(OCCCC[C@@H]1[C@H]2CCCN3CCC[C@@H](CN1S(=O)(=O)c1ccc(C(F)(F)F)cc1)[C@@H]23)C12CC3CC(CC(C3)C1)C2 (as salt: hydrochloride) [Compound 9a, 12N-p-Trifluoromethlybenzenesulfonyl matrinic butyl adamantine-1’-carboxylate hydrochloride] | 231 °C (dec.) | – | – | –
2 | CCCC[C@@H]1[C@H]2CCCN3CCC[C@@H](CN1S(=O)(=O)c1ccc(C(F)(F)F)cc1)[C@@H]23 [Compound 7a] | – | 79.8 ± 4.7 | 21.3 ± 1.9 | –
3 | CCCC[C@@H]1[C@H]2CCCN3CCC[C@@H](CN1S(=O)(=O)c1cccc(C(F)(F)F)c1)[C@@H]23 [Compound 7b] | – | 86.6 ± 2.3 | 28.9 ± 2.4 | –
4 | CCCC[C@@H]1[C@H]2CCCN3CCC[C@@H](CN1S(=O)(=O)c1ccccc1C(F)(F)F)[C@@H]23 [Compound 7c] | – | 86.6 ± 3.8 | 50 ± 1.1 | –
5 | O=C(OCCCC[C@@H]1[C@H]2CCCN3CCC[C@@H](CN1S(=O)(=O)c1ccc(C(F)(F)F)cc1)[C@@H]23)C12CC3CC(CC(C3)C1)C2 [Compound 9a, 12N-p-Trifluoromethlybenzenesulfonyl matrinic butyl adamantine-1’-carboxylate hydrochloride] | – | 19.5 ± 2.8 | 16.5 ± 2.9 | –
6 | O=C(CC12CC3CC(CC(C3)C1)C2)OCCCC[C@@H]1[C@H]2CCCN3CCC[C@@H](CN1S(=O)(=O)c1ccc(C(F)(F)F)cc1)[C@@H]23 [Compound 9b, 12N-p-Trifluoromethlybenzenesulfonyl matrinic butyl-1’-adamantaneacetatehydrochloride] | – | 61.9 ± 1.9 | 28.4 ± 2.3 | –
7 | O=C(CC12CC3CC(CC(C3)C1)C2)OCCCC[C@@H]1[C@H]2CCCN3CCC[C@@H](CN1S(=O)(=O)c1cccc(C(F)(F)F)c1)[C@@H]23 [Compound 9e, 12N-m-Trifluoromethlybenzenesulfonyl matrinic butyl-1’-adamantaneacetatehydrochloride] | – | 63.4 ± 2.3 | 11.1 ± 1.5 | –
8 | O=C(OCCCC[C@@H]1[C@H]2CCCN3CCC[C@@H](CN1S(=O)(=O)c1ccc(C(F)(F)F)cc1)[C@@H]23)C12CC3CC(CC1C3)C2 [Compound 9g, 12N-p-Trifluoromethlybenzenesulfonylmatrinicbutyl-3’-noradamantane-1’-carboxylate hydrochloride] | – | 38.5 ± 6.6 | – | complete loss in activity
9 | O=C(OCCCC[C@@H]1[C@H]2CCCN3CCC[C@@H](CN1S(=O)(=O)c1cccc(C(F)(F)F)c1)[C@@H]23)C12CC3CC(CC1C3)C2 [Compound 9h, 12N-m-Trifluoromethlybenzenesulfonylmatrinicbutyl-3’-noradamantane-1’-carboxylate hydrochloride] | – | 59.7 ± 0.0 | – | complete loss in activity
10 | O=C(CC1CC2CCC1C2)OCCCC[C@@H]1[C@H]2CCCN3CCC[C@@H](CN1S(=O)(=O)c1ccc(C(F)(F)F)cc1)[C@@H]23 (stereo partly shown) [Compound 9i, 12N-p-Trifluoromethlybenzenesulfonyl matrinic butyl-2’-norbornane acetate hydrochloride] | – | 129.0 ± 20.9 | 25.7 ± 4.8 | –
11 | CC(C)(C)C(=O)OCCCC[C@@H]1[C@H]2CCCN3CCC[C@@H](CN1S(=O)(=O)c1ccc(C(F)(F)F)cc1)[C@@H]23 [Compound 9k, 12N-p-Trifluoromethlybenzenesulfonyl matrinic butyl pivalate hydrochloride] | – | 94.3 ± 11.3 | – | –
12 | CC(C)(C)C(=O)OCCCC[C@@H]1[C@H]2CCCN3CCC[C@@H](CN1S(=O)(=O)c1cccc(C(F)(F)F)c1)[C@@H]23 [Compound 9l, 12N-m-Trifluoromethlybenzenesulfonyl matrinicbutylpivalate hydrochloride] | – | 52.9 ± 8.0 | 18.2 ± 3.2 | –
